US20120016010A1, “RNA Interference Mediated Inhibition of BTB and CNC Homology 1, Basic Leucine Zipper Transcription Factor 1 (BACH1) Gene Expression Using Short Interfering Nucleic Acid (siNA)” (Merck Sharp & Dohme Corp, priority 2009, published 2012)

Columns and labels:
Male CD rats = conditions: rat, in vivo, 10 mg/kg
Procedure: Male CD rats were anaesthetised and intra-tracheally dosed with 200 ul of either vehicle, Poly I:C (1 mg/kg) or siNA (10 mg/kg). 24 hours later the rats were euthanized and the lungs lavaged 3 times with 5 ml of heparinised PBS. Total and differential cell counts as well as cytokine analysis were performed on the lung lavage fluid.

[1] = tested on: human GAPDH mRNA transcript; assay: GAPDH specificity screen in human A549 cells; type: cell-based; conditions: Table 5; 1 nM siNA, STAT 4 as endogenous control, relative to universal control siNA
Procedure: To evaluate the expression level and % knock-down of GAPDH, STAT 4 gene was used as an endogenous control to calculate ΔCt for siNA treated samples and the universal control:
STAT 4 gene was selected as an internal normalizer based on its relatively consistent expression across 49 test samples in three independent experiments. ΔΔCt, Relative expression level and % KD were calculated as described above.
The specificity of these siNAs was also assessed. These siNAs were tested at a lower concentration (1 nM versus the original screening concentration of 10 nM) to determine the effect of the Bach1 siNAs on the mRNA transcript of human GAPDH.

Bach1 mRNA [2] = assay: Dose-response curve of Bach1 mRNA knock-down in human A549 cells; type: cell-based; conditions: for Maximum % KD in DRC: Table 6, Bach1 mRNA, mean ± SD; for IC50: Table 6, mean ± SD
HMOX-1 mRNA = HMOX-1 mRNA increase in response to Bach1 siNA in human A549 cells; type: cell-based; conditions: 24 hrs post-transfection, mean ± SD
Procedure: A series of probes and primers were used to detect the various mRNA transcripts of the genes of Bach1, HMOX-1, and GAPDH in mouse and human cell lines. The assays were performed on an ABI 7900 instrument, according to the manufacturer's instructions. A TaqMan Gene Expression Master Mix (provided in the Cells-to-CTT™, Applied Biosystems, Cat # 4399002) was used. The PCR reactions were carried out at 50° C. for 2 min, 95° C. for 20 min followed by 40 cycles at 95° C. for 15 secs and 60° C. for 1 min
All calculations of IC50s were performed using SigmaPlot 10.0 software. The data were analyzed using the sigmoidal dose-response (variable slope) equation for simple ligand binding. In all of the calculations of the % knock-down, the calculation was made relative to the normalized level of expression of the gene of interest in the samples treated with the non-targeting control (Ctrl siNA) unless otherwise indicated.
For the statistical measures of significance for the HMOX-1 mRNA increase in response to Bach1 siNA treatment, a two-tailed Student's t-test on the dCt values for wells treated with the non-targeting control siNA compared with the dCt values for wells treated with the highest concentration of each respective active siNA, was performed.
Various siNAs were also evaluated for their potential to knock-down Bach1 protein. As no validated reagents were available to directly track changes in protein expression, this was done by assessing the increase in HMOX-1 mRNA in response to increasing doses of the active Bach1 siNAs.
The siNAs were tested at a single time point post-transfection (24 hrs). This was the time point at which the Bach1 mRNA levels had previously been determined. The non-targeting control siNA was also tested on each plate of samples and was found, across the six plates to show a maximum of 29±12% increase in the level of HMOX-1.
The comparison of the maximum percentage increase in HMOX-1 and EC50 and the maximum percentage decrease of Bach1 and IC50 are shown in Table 6. Table 6 also includes the measure of statistical significance for the increase in HMOX-1 mRNA levels in response to treatment with the respective Bach1 siNA.

Bach1 mRNA [3] = assay: Dose-response curve of Bach1 mRNA knock-down in human A549 cells; type: cell-based; conditions: three experiments, mean ± standard deviation; for IC50: Table 4, Bach1 mRNA knock-down; for Maximum % KD in DRC: Table 4, Bach1 mRNA, 12 concentrations 0.083 fM to 30 nM
Procedure: All calculations of IC50s were performed using SigmaPlot 10.0 software. The data were analyzed using the sigmoidal dose-response (variable slope) equation for simple ligand binding. In all of the calculations of the % knock-down, the calculation was made relative to the normalized level of expression of the gene of interest in the samples treated with the non-targeting control (Ctrl siNA) unless otherwise indicated. Summary data, as to potency and efficacy for Bach1 mRNA knock-down in human cells for certain siNA molecules, is presented in Table 4. Cells for the experiments were treated with 12 concentrations of siNA ranging from 0.083 fM to 30 nM. All of the data is presented as % knockdown of Bach1 normalized against the expression of GAPDH mRNA expression level. Then the data was determined as a % knockdown relative to the non-targeting control siNA.

Substance | cytokine production (Male CD rats) | inflammatory cell (neutrophils and macrophages) influx (Male CD rats) | % KD GAPDH [1] [%] | Maximum % KD in DRC (Bach1 mRNA [2]) [%] | IC50 (Bach1 mRNA [2]) [pM] | EC50 (HMOX-1 mRNA) [pM] | Maximum % Hmox-1 Increase in DRC (HMOX-1 mRNA) [%] | IC50 (Bach1 mRNA [3]) [nM] | Maximum % KD in DRC (Bach1 mRNA [3]) [%]
29988-DC (sense AUUUGAACCUUUAAUUCAGTT; antisense CUGAAUUAAAGGUUCAAAUUU; inverted abasic end caps, TT overhangs, modified nucleotides, further chemistry not given here) | no significant increases | no significant increases | 23 ± 5 | 84 ± 0.9 | 63 ± 19 | 38.2 ± 29.8 | 190 ± 62 | 0.063 ± 0.019 | 84 ± 0.9
29947-DC (sense GGAAUCCUGCUUUCAGUUUTT; antisense AAACUGAAAGCAGGAUUCCUU; inverted abasic caps (B), 2'-modified nucleotides, further chemistry not given here) | no significant increases | no significant increases | −15 ± 29 | 86 ± 0.5 | 27 ± 5 | 37.7 ± 21.5 | 187 ± 71 | 0.027 ± 0.005 | 86 ± 0.5
29957-DC (sense GCAGUUACUUCCACUCAAGTT; antisense CUUGAGUGGAAGUAACUGCUU; inverted abasic end caps, TT overhangs, modified nucleotides, further chemistry not given here) | – | – | −10 ± 9 | 87 ± 0.9 | 39 ± 13 | 33.6 ± 20 | 213 ± 29 | 0.039 ± 0.013 | 87 ± 0.9
29964-DC (sense GAUUUGCAGGUGAUGUUAATT; antisense UUAACAUCACCUGCAAAUCUU; inverted abasic end caps, TT overhangs, modified nucleotides, further chemistry not given here) | no significant increases | no significant increases | 14 ± 2 | 87 ± 2.8 | 27 ± 15 | 21.8 ± 15.5 | 240 ± 30 | 0.027 ± 0.015 | 87 ± 2.8
29956-DC (sense GUCUGAGUGUCCGUGGUUATT; antisense UAACCACGGACACUCAGACUU; inverted abasic caps (B), 2'-modified nucleotides, further chemistry not given here) | – | – | −18 ± 15 | 80 ± 7.7 | 28 ± 18 | 30.9 ± 19.9 | 308 ± 87 | 0.028 ± 0.018 | 80 ± 7.7
29961-DC (sense CUACACUGCUAAACUGAUUTT; antisense AAUCAGUUUAGCAGUGUAGUU; inverted abasic end caps, TT overhangs, modified nucleotides, further chemistry not given here) | no significant increases | no significant increases | 7 ± 7 | 89 ± 2.2 | 10 ± 4 | 10.4 ± 10 | 262 ± 87 | 0.01 ± 0.004 | 89 ± 2.2
